The values that follow are results of earlier work, collected in patent publication US10022338B2, “Honey bee mite disruptive compounds and methods of application” (SIMON FRASER UNIVERSITY, priority 2014, dated 2018).

This series deals with olfactory sensory organ on the Varroa foreleg. Conditions: separate study.

As for `CCN(CC)C(=O)c1cccc(C)c1` [DEET, 3-methyl-N,N-diethylbenzamide], the “short-term inhibition of Varroa's response to bee headspace” value was “not significant”. In addition, where the note is “high dose”, the “long-term inhibition of Varroa's response to bee headspace” value is “long-term inhibit”.
